US6750228B1, “Aromatic sulfone hydroxamic acid metalloprotease inhibitor” (priority 1997, dated 2004)
Structures can show the parent of a compound that is named as a salt. Where two headings read alike, the source gives them in different places.

Experiments:
Assay in all cases: biochemical
MMP-1 = biological target: T1, MMP-1 (Homo sapiens, UniProt P03956); details: read-out: MMP-1 IC50
T1 construct: made in house; host or cells: transfected HT-1080 cells (provided by Dr. Harold Welgus, Washington University)
T1 sequence (P03956 100-469): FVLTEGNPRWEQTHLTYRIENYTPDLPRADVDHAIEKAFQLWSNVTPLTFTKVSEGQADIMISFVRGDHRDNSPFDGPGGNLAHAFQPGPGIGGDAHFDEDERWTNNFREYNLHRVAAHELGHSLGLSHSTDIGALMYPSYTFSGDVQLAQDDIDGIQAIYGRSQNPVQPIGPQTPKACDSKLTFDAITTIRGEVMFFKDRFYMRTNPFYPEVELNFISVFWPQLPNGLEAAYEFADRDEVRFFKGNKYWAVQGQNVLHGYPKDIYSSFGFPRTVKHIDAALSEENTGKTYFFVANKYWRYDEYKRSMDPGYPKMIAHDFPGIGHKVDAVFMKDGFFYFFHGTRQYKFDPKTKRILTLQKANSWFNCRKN
Method: (§1) The compounds prepared in the manner described in the Examples above were assayed for activity by an in vitro assay. […] Briefly, 4-aminophenylmercuric acetate (APMA) or trypsin-activated MMPs were incubated with various concentrations of the inhibitor compound at room temperature for 5 minutes.
(§2) The expressed enzyme was purified first over a heparin agarose column and then over a chelating zinc chloride column. The proenzyme was activated by APMA for use in the assay.
(§3) MMP-1 expressed in transfected HT-1080 cells was provided by Dr. Harold Welgus of Washington University, St. Louis, Mo. The enzyme was also activated using APMA and was then purified over a hydroxamic acid column. Dr. Welgus also provided transfected HT-1080 cells that expressed MMP-9. Transfected cells that expressed MMP-2 were provided by Dr. Gregory Goldberg, also of Washington University. Studies with MMP-7 were carried out at pH 7.5 in the presence of 0.02% 2-mercaptoethanol using conditions otherwise similar to those used for the other enzymes. The enzyme was obtaind from a hMMP-7-expressing E. coli clone that was a gift of Dr. Steven Shapiro of Washington University, St. Louis, Mo. Further specifics for preparation and use of these enzymes can be found in the scientific literature describing these enzymes. See, for example, Enzyme Nomenclature, Academic Press, San Diego, Calif. […] The enzyme substrate is a methoxycoumarin-containing polypeptide having the following sequence:
(§4) MCA-ProLeuGlyLeuDpaAlaArgNH2, wherein MCA is methoxycoumarin and Dpa is 3-(2,4-dinitrophenyl)-L-2,3-diaminopropionyl alanine.
(§5) The buffer used for assays contained 100 mM Tris-HCl, 100 mM NaCl, 10 mM CaCl2 and 0.05 percent polyethyleneglycol (23) lauryl ether at a pH value of 7.5. Assays were carried out at room temperature, and dimethyl sulfoxide (DMSO) at a final concentration of 1 percent was used to dissolve inhibitor compound.
(§6) The assayed inhibitor compound in DMSO/buffer solution was compared to an equal amount of DMSO/buffer with no inhibitor as control using Microfluor White Plates (Dynatech). The inhibitor or control solution was maintained in the plate for 10 minutes and the substrate was added to provide a final concentration of 4 μM.
(§7) Inhibition was measured as a reduction in fluorescent intensity as a function of inhibitor concentration, using a Perkin Elmer L550 plate reader. The IC50 values were calculated from those values. The results are set forth in the Inhibition Table A, below, reported in terms of IC50 to three significant figures, where appropriate.

MMP-13 = biological target: T2, MMP-13 (Homo sapiens, UniProt P45452); details: read-out: MMP-13 IC50
T2 construct: made in house; host or cells: baculovirus / insect cells
Method: as §1, §2, §3, §4, §5, §6, §7

MMP-2 = biological target: T3, MMP-2 (Homo sapiens, UniProt P08253)
T3 construct: made in house; provided by Dr. Gregory Goldberg, Washington University
T3 sequence (P08253 110-660): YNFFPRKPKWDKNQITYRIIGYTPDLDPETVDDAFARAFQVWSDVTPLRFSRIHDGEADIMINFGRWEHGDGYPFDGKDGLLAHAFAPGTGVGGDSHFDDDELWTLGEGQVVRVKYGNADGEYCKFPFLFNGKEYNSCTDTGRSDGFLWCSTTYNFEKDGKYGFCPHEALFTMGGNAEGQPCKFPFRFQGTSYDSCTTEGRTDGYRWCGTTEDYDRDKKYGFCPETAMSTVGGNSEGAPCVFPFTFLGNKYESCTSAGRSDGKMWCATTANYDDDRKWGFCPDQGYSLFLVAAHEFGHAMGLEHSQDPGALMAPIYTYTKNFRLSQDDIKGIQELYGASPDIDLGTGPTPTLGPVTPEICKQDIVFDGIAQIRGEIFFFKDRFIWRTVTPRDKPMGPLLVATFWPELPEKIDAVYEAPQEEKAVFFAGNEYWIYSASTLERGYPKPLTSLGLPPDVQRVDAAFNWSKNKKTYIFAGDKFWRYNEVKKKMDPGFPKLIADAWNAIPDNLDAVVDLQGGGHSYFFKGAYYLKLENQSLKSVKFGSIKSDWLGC
Method: as §1, §2, §3, §4, §5, §6, §7

[1] = recombinant human MMP-1, MCA peptide substrate 4 μM, pH 7.5, room temperature
[2] = recombinant human MMP-13, MCA peptide substrate 4 μM, pH 7.5, room temperature
[3] = recombinant human MMP-2, MCA peptide substrate 4 μM, pH 7.5, room temperature, read-out: MMP-2 IC50

| SMILES | IC50 (MMP-1; [1]) | IC50 (MMP-13; [2]) | IC50 (MMP-2; [3]) | also measured |
| --- | --- | --- | --- | --- |
| CC1CC(C)CN(C(=O)C2CCN(c3ccc(S(=O)(=O)C4(C(=O)NO)CCN(C(=O)CNCC5CC5)CC4)cc3)CC2)C1 (centres unmarked) [Example 293] | > 10000 nM | 63.1 nM | > 10000 nM |  |
| O=C(Cc1ccccc1)C1CCN(c2ccc(S(=O)(=O)C3(C(=O)NO)CCOCC3)cc2)CC1 [Example 838] | > 10000 nM | 3 nM | 70 nM |  |
| O=C(NO)C1(S(=O)(=O)c2ccc(N3CCC(SCc4ccc(OC(F)(F)F)cc4)CC3)cc2)CCN(C2CC2)CC1 [Example 454] | > 10000 nM |  |  |  |
| CC1CC(C)CN(C(=O)C2CCN(c3ccc(S(=O)(=O)C4(C(=O)NO)CCN(C(=O)CNCC(F)(F)F)CC4)cc3)CC2)C1 (centres unmarked) [Example 310] | > 10000 nM | 60 nM |  |  |
| O=C(NO)C1(S(=O)(=O)c2ccc(N3CCC(SCc4ccccc4)CC3)cc2)CCN(C2CC2)CC1 [Example 417] | > 10000 nM | 0.7 nM |  |  |
| CN(C)CCN1CCN(C(=O)C2CCN(c3ccc(S(=O)(=O)C4(C(=O)NO)CCOCC4)cc3)CC2)CC1 [Example 23] |  |  |  | IC50 (MMP-1): > 10000 nM; IC50 (MMP-13): 90 nM |
| COc1ccc(C(=O)C2CCN(c3ccc(S(=O)(=O)C4(C(=O)NO)CCNCC4)cc3)CC2)cc1 [Example 437] | > 10000 nM |  |  |  |
| CN(C)c1ccc(C(=O)C2CCN(c3ccc(S(=O)(=O)C4(C(=O)NO)CCOCC4)cc3)CC2)cc1 [Example 802] | > 10000 nM | 2.3 nM |  |  |
| C[C@@H]1CN(C(=O)C2CCN(c3ccc(S(=O)(=O)C4(C(=O)NO)CCOCC4)cc3)CC2)C[C@H](C)N1 [Example 46] |  |  |  | IC50 (MMP-1): > 10000 nM; IC50 (MMP-2; MMP-2 IC50 (nM)): 5700 nM |
| C[C@@H]1C[C@H](C)CN(C(=O)C2CCN(c3ccc(S(=O)(=O)C4(C(=O)NO)CCNCC4)cc3)CC2)C1 [Example 240, rel-4-[[4-[4-[[(3R,5S)-3,5-Dimethyl-1-piperidinyl]carbonyl]-1-piperidinyl]phenyl]sulfonyl]-N-hydroxy-4-piperidinecarboxamide, Monohydrochloride] | > 10000 nM | 76.9 nM |  |  |
| Cn1ccc2cc(C(=O)C3CCN(c4ccc(S(=O)(=O)C5(C(=O)NO)CCOCC5)cc4)CC3)ccc21 [Example 867] | > 10000 nM | 16.5 nM |  |  |
| CC1CC(C)CN(C(=O)C2CCN(c3ccc(S(=O)(=O)C4(C(=O)NO)CCOCC4)cc3)CC2)C1 (centres unmarked) [Example 55] |  | 10 nM | > 10000 nM |  |
| O=C(NO)C1(S(=O)(=O)c2ccc(N3CCC(SCc4cccc(C(F)(F)F)c4)CC3)cc2)CCN(C2CC2)CC1 [Example 463] | > 10000 nM |  |  |  |
| CC(C)(C)c1ccc(CC2CCN(c3ccc(S(=O)(=O)C4(C(=O)NO)CCOCC4)cc3)CC2)cc1 [Example 841] |  | 285 nM | 1900 nM |  |
| CCc1ccc(C(=O)C2CCN(c3ccc(S(=O)(=O)C4(C(=O)NO)CCN(C5CC5)CC4)cc3)CC2)cc1 [Example 371] |  | 11.1 nM | 400 nM |  |
| CCOc1ccc(C(=O)C2CCN(c3ccc(S(=O)(=O)C4(C(=O)NO)CCN(C5CC5)CC4)cc3)CC2)cc1 [Example 376] |  | 5.5 nM | 230 nM |  |
| Cc1ccc(S(=O)(=O)N(C)C2CCN(c3ccc(S(=O)(=O)C4(C(=O)NO)CCOCC4)cc3)CC2)cc1 [Example 834] |  | 150 nM | 780 nM |  |
| C[C@H]1C[C@H](C)CN(C(=O)C2CCN(c3ccc(S(=O)(=O)C4(C(=O)NO)CCNCC4)cc3)CC2)C1 (relative stereo) [Example 238, rel-4-[[4-[4-[[(3R,5R)-3,5-Dimethyl-1-piperidinyl]carbonyl]-1-piperidinyl]phenyl]sulfonyl]-N-hydroxy-4-piperidinecarboxamide, Monohydrochloride] |  |  |  | IC50 (MMP-1): > 10000 nM; IC50 (MMP-13): 80 nM |

| SMILES | IC50 (MMP-1; [1]) | IC50 (MMP-13; [2]) | IC50 (MMP-2; [3]) | also measured |
| --- | --- | --- | --- | --- |
| O=C(NO)C1(S(=O)(=O)c2ccc(N3CCN(c4ccc(C(F)(F)F)cc4)CC3)cc2)CCN(C2CC2)CC1 [Example 356] |  | 2.4 nM | 32.6 nM |  |
| O=C(NO)C1(S(=O)(=O)c2ccc(N3CCC(c4nc(-c5cccc(C(F)(F)F)c5)no4)CC3)cc2)CCN(C2CC2)CC1 [Example 388] |  | 50 nM | 430 nM |  |
| O=C(C1CCN(c2ccc(S(=O)(=O)C3(C(=O)NO)CCOCC3)cc2)CC1)N1CCN(c2ccccn2)CC1 [Example 26] |  |  |  | IC50 (MMP-1): > 10000 nM; IC50 (MMP-2; read-out: MMP-2 IC50): 3600 nM |
| O=C(NO)C1(S(=O)(=O)c2ccc(N3CCC(SCc4ccccc4Cl)CC3)cc2)CCN(C2CC2)CC1 [Example 461] | > 10000 nM |  |  |  |
| O=C(NO)C1(S(=O)(=O)c2ccc(N3CCC(SCc4ccc(OC(F)(F)F)cc4)CC3)cc2)CCNCC1 [Example 460] | > 10000 nM |  |  |  |
| O=C(NO)C1(S(=O)(=O)c2ccc(N3CCC(SCc4ccc(C(F)(F)F)cc4)CC3)cc2)CCN(C2CC2)CC1 [Example 394] |  | 0.5 nM | 8 nM |  |
| COCCN1CCC(C(N)=O)(S(=O)(=O)c2ccc(Oc3ccc(OC(F)(F)F)cc3)cc2)CC1 [Example 1] |  | 22.7 nM | 8.5 nM |  |
| COc1cc(C(=O)C2CCN(c3ccc(S(=O)(=O)C4(C(=O)NO)CCOCC4)cc3)CC2)ccc1Cl [Example 859] |  | 5.5 nM | 440 nM |  |
| O=CN1CCC(C(=O)NO)(S(=O)(=O)c2ccc(Oc3ccc(OC(F)(F)F)cc3)cc2)CC1 [Example 452] |  | < 0.1 nM | < 0.1 nM |  |
| C=C(C)c1ccc(N2CCN(c3ccc(S(=O)(=O)C4(C(=O)NO)CCN(C5CC5)CC4)cc3)CC2)cc1 [Example 360] |  | 10 nM | 5.6 nM |  |
| C=CCN(CC=C)C(=O)C1CCN(c2ccc(S(=O)(=O)C3(C(=O)NO)CCOCC3)cc2)CC1 [Example 48] |  | 27 nM | 3200 nM |  |
| C[C@H](OC1CCN(c2ccc(S(=O)(=O)C3(C(=O)NO)CCN(C4CC4)CC3)cc2)CC1)c1ccccc1 [Example 400] |  | 23.5 nM | 520 nM |  |
| O=C(NO)C1(S(=O)(=O)c2ccc(N3CCC(OCc4cccc(C(F)(F)F)c4)CC3)cc2)CCOCC1 [Example 177] |  | 8.8 nM | 520 nM |  |
| CC1CC(C)CN(C(=O)C2CCN(c3ccc(S(=O)(=O)C4(C(=O)NO)CCN(C(=O)CN5CCN(CCN(C)C)CC5)CC4)cc3)CC2)C1 (centres unmarked) [Example 308] | > 10000 nM | 40 nM |  |  |
| CN(C)c1cccc2c(S(=O)(=O)N3CC(Oc4ccc(S(=O)(=O)C5(C(=O)NO)CCOCC5)cc4)C3)cccc12 [Example 852] |  | 25 nM | 3000 nM |  |
| COc1cccc(S(=O)(=O)N2CC(Oc3ccc(S(=O)(=O)C4(C(=O)NO)CCOCC4)cc3)C2)c1 [Example 829] |  | 6 nM | 22 nM |  |
| CCCCS(=O)(=O)N1CC(Oc2ccc(S(=O)(=O)C3(C(=O)NO)CCOCC3)cc2)C1 [Example 851] |  | 3.7 nM | 42.5 nM |  |
| COc1ccc(C(=O)C2CCN(c3ccc(S(=O)(=O)C4(C(=O)NO)CCN(C(=O)c5ccco5)CC4)cc3)CC2)cc1 [Example 436] | > 10000 nM |  |  |  |
